Patent publication US20170355705A1 (GlaxoSmithKline Intellectual Property (No.2) Limited, priority 2014, published 2017)
Counter-ions that a name gives are not always drawn.

Molecular target: T1, SIRT1 (Homo sapiens, UniProt Q96EB6)
T1 sequence (Q96EB6 1-747): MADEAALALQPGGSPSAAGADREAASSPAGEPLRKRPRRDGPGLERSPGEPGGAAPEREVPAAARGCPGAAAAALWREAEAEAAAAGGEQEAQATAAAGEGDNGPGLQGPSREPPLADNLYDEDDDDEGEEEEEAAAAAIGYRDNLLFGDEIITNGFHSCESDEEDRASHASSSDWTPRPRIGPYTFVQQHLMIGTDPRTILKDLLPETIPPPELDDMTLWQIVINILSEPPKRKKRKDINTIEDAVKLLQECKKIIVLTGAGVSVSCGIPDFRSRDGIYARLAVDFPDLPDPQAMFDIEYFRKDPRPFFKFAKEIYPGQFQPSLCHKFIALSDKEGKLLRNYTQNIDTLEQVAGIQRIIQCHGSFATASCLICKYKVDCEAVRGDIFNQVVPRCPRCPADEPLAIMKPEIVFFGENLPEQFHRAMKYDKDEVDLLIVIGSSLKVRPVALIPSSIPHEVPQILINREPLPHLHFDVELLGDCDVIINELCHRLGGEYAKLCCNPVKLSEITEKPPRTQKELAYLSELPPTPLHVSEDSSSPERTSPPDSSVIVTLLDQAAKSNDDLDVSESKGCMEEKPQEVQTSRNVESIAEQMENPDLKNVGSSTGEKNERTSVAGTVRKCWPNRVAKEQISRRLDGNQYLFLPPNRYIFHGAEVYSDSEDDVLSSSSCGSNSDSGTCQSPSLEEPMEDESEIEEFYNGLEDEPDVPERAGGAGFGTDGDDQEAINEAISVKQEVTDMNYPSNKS
Assay: Trp mass spectrometry assay of SIRT1 activity (EC1.5, percent maximum activation)
Assay type: biochemical
Conditions: Trp mass spectrometry assay; for TRP Activity (EC1.5): EC1.5 = concentration giving 150% activation of SIRT1
Outline: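 MS readout: O-acetyl-ADP-ribose (or deacetylated peptide) formed by His-tagged SIRT1 (BL21(DE3)-expressed) on 5TMR-Trp p53-based peptide, 25 min, formic acid stop. EC1.5 = concentration raising activity 50% over no-compound control; % max activation vs control = 100%.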

[1] = percent maximum activation of SIRT1
[2] = 0.5 μM peptide substrate, 120 μM βNAD+, 10 nM SIRT1, 25 minutes at 25° C.

O=C(Nc1cccc(OC[C@H](O)CO)n1)N1c2nc(-c3cccc(C(F)(F)F)c3)c(Cl)cc2N2CC[C@H]1C2 [Example 56, (4S)-8-chloro-N-(6-((R)-2,3-dihydroxypropoxy)pyridin-2-yl)-7-(3-(trifluoromethyl)phenyl)-3,4-dihydro-1,4-methanopyrido[2,3-b][1,4]diazepine-5(2H)-carboxamide]
TRP Activity (EC1.5): A (EC1.5<1 μM) | TRP MAX RESP (percent maximum fold activation) [1]: A (Fold activation ≧150%)

Cc1cc(-c2ccc3c(n2)N(C(=O)Nc2cc(-c4cnn(CC(F)(F)F)c4)ccn2)[C@H]2CCN3C2)ccn1 [Example 366]
TRP MAX RESP (percent maximum fold activation) [2]: A (Fold activation ≧150%)

CN1CCN(c2ccc3c(n2)N(C(=O)Nc2cnccn2)[C@H]2CCN3C2)CC1 [Example 206, (4S)-7-(4-methylpiperazin-1-yl)-N-(pyrazin-2-yl)-3,4-dihydro-1,4-methanopyrido[2,3-b][1,4]diazepine-5(2H)-carboxamide]
TRP Activity (EC1.5, concentration of test compound that results in 150% activation of SIRT1) [2]: B (EC1.5 1-25 μM) | TRP MAX RESP (percent maximum fold activation) [2]: A (Fold activation ≧150%)

O=C(Nc1cnccn1)N1c2nc(N3CCOCC3)ccc2N2CC[C@H]1C2 [Example 160, (4S)-7-morpholino-N-(pyrazin-2-yl)-3,4-dihydro-1,4-methanopyrido[2,3-b][1,4]diazepine-5(2H)-carboxamide]
TRP Activity (EC1.5): B (EC1.5 1-25 μM) | TRP MAX RESP (percent maximum fold activation) [1]: A (Fold activation ≧150%)

Cc1cc2c(nc1-c1cccc(C(F)(F)F)c1)N(C(=O)Nc1ccnc(OC[C@@H](O)CO)c1)[C@H]1CCN2C1 [Example 101, (4S)-N-(2-((S)-2,3-dihydroxypropoxy)pyridin-4-yl)-8-methyl-7-(3-(trifluoromethyl)phenyl)-3,4-dihydro-1,4-methanopyrido[2,3-b][1,4]diazepine-5(2H)-carboxamide]
TRP Activity (EC1.5): A (EC1.5<1 μM) | TRP MAX RESP (percent maximum fold activation) [1]: A (Fold activation ≧150%)

Cc1ncc(-c2ccc3c(n2)N(C(=O)Nc2cnccn2)[C@H]2CCN3C2)cn1 [Example 165, (4S)-7-(2-methylpyrimidin-5-yl)-N-(pyrazin-2-yl)-3,4-dihydro-1,4-methanopyrido[2,3-b][1,4]diazepine-5(2H)-carboxamide]
TRP Activity (EC1.5): B (EC1.5 1-25 μM) | TRP MAX RESP (percent maximum fold activation) [1]: A (Fold activation ≧150%)

Cc1cc(-c2ccc3c(n2)N(C(=O)Nc2cnccn2)[C@H]2CCN3C2)cnc1C [Example 171, (4S)-7-(5,6-dimethylpyridin-3-yl)-N-(pyrazin-2-yl)-3,4-dihydro-1,4-methanopyrido[2,3-b][1,4]diazepine-5(2H)-carboxamide]
TRP Activity (EC1.5): A (EC1.5<1 μM) | TRP MAX RESP (percent maximum fold activation) [1]: A (Fold activation ≧150%)

O=C(Nc1ccnc(OCC(O)CO)c1)N1c2nc(-c3cnn(CC(F)(F)F)c3)c(Cl)cc2N2CC[C@H]1C2 (stereo in doubt) [Example 371, (4S)-8-chloro-N-(2-((R)-2,3-dihydroxypropoxy)pyridin-4-yl)-7-(1-(2,2,2-trifluoroethyl)-1H-pyrazol-4-yl)-3,4-dihydro-1,4-methanopyrido[2,3-b][1,4]diazepine-5(2H)-carboxamide]
TRP Activity (EC1.5, concentration of test compound that results in 150% activation of SIRT1) [2]: B (EC1.5 1-25 μM) | TRP MAX RESP (percent maximum fold activation) [2]: A (Fold activation ≧150%)

CC1CCN(c2ccc3c(n2)N(C(=O)Nc2cnccn2)[C@H]2CCN3C2)CC1 [Example 198, (4S)-7-(4-methylpiperidin-1-yl)-N-(pyrazin-2-yl)-3,4-dihydro-1,4-methanopyrido[2,3-b][1,4]diazepine-5(2H)-carboxamide]
TRP Activity (EC1.5): B (EC1.5 1-25 μM) | TRP MAX RESP (percent maximum fold activation) [1]: A (Fold activation ≧150%)

Cn1ccc(-c2ccc3c(n2)N(C(=O)Nc2cccnc2)[C@H]2CCN3C2)cc1=O [Example 233, (4S)-7-(1-methyl-2-oxo-1,2-dihydropyridin-4-yl)-N-(pyridin-3-yl)-3,4-dihydro-1,4-methanopyrido[2,3-b][1,4]diazepine-5(2H)-carboxamide]
TRP Activity (EC1.5, concentration of test compound that results in 150% activation of SIRT1) [2]: B (EC1.5 1-25 μM) | TRP MAX RESP (percent maximum fold activation) [2]: A (Fold activation ≧150%)

Cc1cc(-c2nc3c(cc2Cl)N2CC[C@@H](C2)N3C(=O)Nc2cccc(OC[C@H](O)CO)n2)ccn1 [Example 41, (4S)-8-chloro-N-(6-((R)-2,3-dihydroxypropoxy)pyridin-2-yl)-7-(2-methylpyridin-4-yl)-3,4-dihydro-1,4-methanopyrido[2,3-b][1,4]diazepine-5(2H)-carboxamide]
TRP Activity (EC1.5): B (EC1.5 1-25 μM) | TRP MAX RESP (percent maximum fold activation) [1]: A (Fold activation ≧150%)

CCc1cnc(NC(=O)N2c3nc(-c4ccnc(C)c4)ccc3N3CC[C@H]2C3)cn1 [Example 161, (4S)-N-(5-ethylpyrazin-2-yl)-7-(2-methylpyridin-4-yl)-3,4-dihydro-1,4-methanopyrido[2,3-b][1,4]diazepine-5(2H)-carboxamide]
TRP Activity (EC1.5): A (EC1.5<1 μM) | TRP MAX RESP (percent maximum fold activation) [1]: A (Fold activation ≧150%)

CC(C)c1cc(-c2ccc3c(n2)N(C(=O)Nc2cnccn2)[C@H]2CCN3C2)ccn1 [Example 137, (4S)-7-(2-isopropylpyridin-4-yl)-N-(pyrazin-2-yl)-3,4-dihydro-1,4-methanopyrido[2,3-b][1,4]diazepine-5(2H)-carboxamide]
TRP Activity (EC1.5): A (EC1.5<1 μM) | TRP MAX RESP (percent maximum fold activation) [1]: A (Fold activation ≧150%)

O=C(Nc1cc(OC[C@H](O)CO)ccn1)N1c2nc(-c3cccc(C(F)(F)F)c3)c(Cl)cc2N2CC[C@H]1C2 [Example 32, (4S)-8-chloro-N-(4-((R)-2,3-dihydroxypropoxy)pyridin-2-yl)-7-(3-(trifluoromethyl)phenyl)-3,4-dihydro-1,4-methanopyrido[2,3-b][1,4]diazepine-5(2H)-carboxamide, Hydrochloride]
TRP Activity (EC1.5): B (EC1.5 1-25 μM) | TRP MAX RESP (percent maximum fold activation) [1]: A (Fold activation ≧150%)

Cl.O=C(NC1CC1)N1c2nc(-c3cccc(C(F)(F)F)c3)c(Cl)cc2N2CC[C@H]1C2 [Example 53, (4S)-8-chloro-N-cyclopropyl-7-(3-(trifluoromethyl)phenyl)-3,4-dihydro-1,4-methanopyrido[2,3-b][1,4]diazepine-5(2H)-carboxamide Hydrochloride]
TRP Activity (EC1.5): A (EC1.5<1 μM) | TRP MAX RESP (percent maximum fold activation) [1]: A (Fold activation ≧150%)

O=C(Nc1cnccn1)N1c2nc(N3CCNCC3)ccc2N2CC[C@H]1C2 [Example 197, (4S)-7-(piperazin-1-yl)-N-(pyrazin-2-yl)-3,4-dihydro-1,4-methanopyrido[2,3-b][1,4]diazepine-5(2H)-carboxamide]
TRP Activity (EC1.5): C (EC1.5>25 μM) | TRP MAX RESP (percent maximum fold activation) [1]: B (Fold Activation <150%)

O=C(Nc1ccnc(OC[C@H](O)CO)c1)N1c2nc(-c3cccc(C(F)(F)F)c3)ccc2N2CC[C@H]1C2 [Example 132, (4S)-N-(2-((R)-2,3-dihydroxypropoxy)pyridin-4-yl)-7-(3-(trifluoromethyl)phenyl)-3,4-dihydro-1,4-methanopyrido[2,3-b][1,4]diazepine-5(2H)-carboxamide]
TRP Activity (EC1.5): A (EC1.5<1 μM) | TRP MAX RESP (percent maximum fold activation) [1]: A (Fold activation ≧150%)
